# Entries after “also recorded” stand apart in the source; their conditions may differ. Where two headings read alike, the source gives them in different places.
# Key:
# [1] = system: muscarinic (non-selective) sites; assay: In vitro binding (off-target receptors) at 10 μM; settings: hemigalactarate salt
# [2] = target: remaining muscarinic subtypes; assay: Follow-up dose response binding assay (CEREP)
# [3] = system: behavioral sensitization; assay: CNS safety pharmacology, behavioral sensitization by motor activity; type: in vivo, Rat: Sprague-Dawley
# [4] = target: hERG channel (Homo sapiens, UniProt Q12809); assay: Cardiovascular safety, hERG channel in vitro; type: cell-based
# [5] = system: respiratory parameters; assay: Respiratory safety pharmacology; type: in vivo, Rat: Sprague-Dawley
# [6] = Single dose pharmacokinetics studies; type: in vivo; settings: Swiss (mouse), Sprague-Dawley (rat), cynomolgus (monkey), plasma, oral, rat and monkey, read-out: time to reach maximum concentration (Tmax)
# Experimental: (§1) In a monkey study, [^14C]-Compound 1 was given at 10 mg/kg orally or 5 mg/kg by iv infusion. Oral bioavailability in this study was about 30%.
# [7] = Single dose pharmacokinetics, rat; type: in vivo, Sprague-Dawley rat; settings: for AUC(0-t): read-out: AUC0-1
# [8] = Single dose pharmacokinetics, monkey; type: in vivo, Cyno monkey; settings: plasma; for AUC(0-t): t = 168 h, read-out: AUC0-1; for AUC(0-inf): read-out: AUCinf, unchanged parent
# Experimental: as §1
# [9] = 7-day pilot intranasal toxicity and toxicokinetic study in rats; settings: for AUC(0-t): AUC0-t
# Experimental: The study design was as follows:
# The following parameters and end points were evaluated in this study; clinical signs, body weights, body weight gain, food consumption, ophthalmology, toxicokinetic parameters, gross necropsy findings, organ weights, and histopathologic examination of select tissues, including nasal cavity at levels I-IV and detailed ocular histopathology for all dose groups: histopathology for brain, pharynx, larynx, trachea, lung, and select target tissues (i.e., adrenal gland, liver, and spleen) that were identified in a GLP 13-week oral toxicity study in rats (DSE 2004-0356) in group 1 and 4 animals, and gross lesions.
# [10] = Sprague-Dawley, plasma, S-D rat, 30 mg/kg [14C]-Compound 1, oral
# [11] = male, Sprague-Dawley, plasma, S-D rat, 0.3 mg/kg Compound 1, oral
# [12] = male, Sprague-Dawley, plasma, S-D rat, 3 mg/kg Compound 1, oral
# [13] = cynomolgus monkey, Cyno monkey, 5 mg/kg [14C]-Compound 1, 20-minute intravenous
# [14] = cynomolgus monkey, Cyno monkey, 10 mg/kg [14C]-Compound 1, oral
# [15] = Female, Day 1, 0.9 mg/day (0.5%), intranasal TID
# [16] = Female, Day 1, 3.6 mg/day (2%), intranasal TID
# [17] = Female, Day 1, 10.8 mg/day (6%), intranasal TID
# [18] = Female, Day 7, 0.9 mg/day (0.5%), intranasal TID
# [19] = Female, Day 7, 3.6 mg/day (2%), intranasal TID
# [20] = Female, Day 7, 10.8 mg/day (6%), intranasal TID
# [21] = Male, Day 1, 0.9 mg/day (0.5%), intranasal TID
# [22] = Male, Day 1, 3.6 mg/day (2%), intranasal TID
# [23] = Male, Day 1, 10.8 mg/day (6%), intranasal TID
# [24] = Male, Day 7, 0.9 mg/day (0.5%), intranasal TID
# [25] = Male, Day 7, 3.6 mg/day (2%), intranasal TID
# [26] = Male, Day 7, 10.8 mg/day (6%), intranasal TID
# [27] = female, rat, plasma, inhaled or intranasal, 0.9 mg/day, Female, Day 1, 0.9 mg/day (0.5%), intranasal TID
# [28] = female, rat, plasma, inhaled or intranasal, 0.9 mg/day, Female, Day 7, 0.9 mg/day (0.5%), intranasal TID
# [29] = female, rat, plasma, inhaled or intranasal, 3.6 mg/day, Female, Day 1, 3.6 mg/day (2%), intranasal TID
# [30] = female, rat, plasma, inhaled or intranasal, 3.6 mg/day, Female, Day 7, 3.6 mg/day (2%), intranasal TID
# [31] = female, rat, plasma, inhaled or intranasal, 10.8 mg/day, Female, Day 1, 10.8 mg/day (6%), intranasal TID
# [32] = female, rat, plasma, inhaled or intranasal, 10.8 mg/day, Female, Day 7, 10.8 mg/day (6%), intranasal TID
# [33] = male, rat, plasma, inhaled or intranasal, 0.9 mg/day, Male, Day 1, 0.9 mg/day (0.5%), intranasal TID
# [34] = male, rat, plasma, inhaled or intranasal, 0.9 mg/day, Male, Day 7, 0.9 mg/day (0.5%), intranasal TID
# [35] = male, rat, plasma, inhaled or intranasal, 3.6 mg/day, Male, Day 1, 3.6 mg/day (2%), intranasal TID
# [36] = male, rat, plasma, inhaled or intranasal, 3.6 mg/day, Male, Day 7, 3.6 mg/day (2%), intranasal TID
# [37] = male, rat, plasma, inhaled or intranasal, 10.8 mg/day, Male, Day 1, 10.8 mg/day (6%), intranasal TID
# [38] = male, rat, plasma, inhaled or intranasal, 10.8 mg/day, Male, Day 7, 10.8 mg/day (6%), intranasal TID
# Sequence of hERG channel (Q12809 whole entry): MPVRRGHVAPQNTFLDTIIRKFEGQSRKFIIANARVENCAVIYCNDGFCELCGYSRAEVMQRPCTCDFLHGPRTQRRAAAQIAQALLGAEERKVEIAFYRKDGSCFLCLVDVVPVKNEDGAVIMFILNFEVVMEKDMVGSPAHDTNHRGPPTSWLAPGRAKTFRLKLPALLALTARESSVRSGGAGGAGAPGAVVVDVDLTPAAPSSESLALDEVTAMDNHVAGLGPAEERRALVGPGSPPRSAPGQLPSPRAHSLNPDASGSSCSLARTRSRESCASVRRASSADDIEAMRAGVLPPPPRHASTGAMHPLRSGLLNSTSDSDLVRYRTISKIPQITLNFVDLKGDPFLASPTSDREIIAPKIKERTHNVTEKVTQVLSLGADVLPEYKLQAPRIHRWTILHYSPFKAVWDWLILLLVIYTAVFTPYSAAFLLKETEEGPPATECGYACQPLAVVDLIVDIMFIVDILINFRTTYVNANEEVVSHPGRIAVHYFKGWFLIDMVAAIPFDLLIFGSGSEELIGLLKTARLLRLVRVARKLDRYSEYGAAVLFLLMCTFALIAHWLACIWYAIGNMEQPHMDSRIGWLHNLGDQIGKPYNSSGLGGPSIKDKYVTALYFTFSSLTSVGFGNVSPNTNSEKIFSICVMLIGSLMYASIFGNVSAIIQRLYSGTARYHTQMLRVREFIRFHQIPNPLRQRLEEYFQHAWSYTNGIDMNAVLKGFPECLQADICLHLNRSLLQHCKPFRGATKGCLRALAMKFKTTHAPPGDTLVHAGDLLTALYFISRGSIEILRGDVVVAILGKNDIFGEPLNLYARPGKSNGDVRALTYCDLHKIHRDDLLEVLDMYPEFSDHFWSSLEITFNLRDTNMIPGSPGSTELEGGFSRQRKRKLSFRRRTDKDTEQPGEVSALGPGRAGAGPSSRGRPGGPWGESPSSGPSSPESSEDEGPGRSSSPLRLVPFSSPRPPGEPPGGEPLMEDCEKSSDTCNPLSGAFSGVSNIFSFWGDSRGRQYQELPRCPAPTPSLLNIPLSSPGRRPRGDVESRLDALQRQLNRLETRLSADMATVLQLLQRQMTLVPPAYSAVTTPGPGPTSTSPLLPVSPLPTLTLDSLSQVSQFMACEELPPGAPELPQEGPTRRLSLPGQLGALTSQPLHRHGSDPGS
compound,measurement,setting,value
"C(=C\[C@H]1CCNC1)/c1cncnc1 [Compound 1, (R)-5-((E)-2-pyrrolidin-3-ylvinyl)pyrimidine]",binding affinity,[1],sites (51%).
same,Ki,[2],> 10 µM
same,interaction between Compound 1 and nicotine in behavioral sensitization,"[3]; 30 mg/kg, 15 days cross-challenge",daily for 15 days indicated no interaction
same,behavioral sensitization (motor activity),"[3]; Compound 1 3, 10, 30 mg/kg po",no noteworthy changes; also recorded: not associated with behavioral
same,IC50,[4],285 µM
same,"respiratory rate, minute volume, peak inspiratory flow",[5]; 100 mg/kg po,"Transient adverse effects; also recorded: shortlasting increase in respiratory rate,"
same,respiratory parameters,[5]; 10 and 30 mg/kg po,10 and 30 mg/kg did not cause changes
same,tidal volume and index of airway resistance,[5]; 5 hour observation period,There were no changes in tidal volume and
same,"NOEL, respiratory",[5]; po,The NOEL was 30 mg/kg.
same,Tmax,[6],0.167 to 2.25 h
same,Cmax,[7]; [10],1710 ng/mL
same,Tmax,[7]; [10],0.25 h
same,AUC(0-t),"[7]; Sprague-Dawley, plasma, S-D rat, 30 mg/kg [14C]-Compound 1, oral, t = 168 h",3310 ng·h/mL
same,half-life,"[7]; Sprague-Dawley, plasma, S-D rat, 30 mg/kg [14C]-Compound 1, oral, read-out: t1/2 (converted)",1.2 h
same,Cmax and AUC0-24 vs dose,"[7]; male rats, 3 mg/kg group vs 0.3 mg/kg, oral",higher than dose-proportional
same,Cmax,[7]; [11],6.51 ng/mL
same,Tmax,[7]; [11],0.5 h
same,AUC(0-t),"[7]; male, Sprague-Dawley, plasma, S-D rat, 0.3 mg/kg Compound 1, oral, t = 25 h",13.5 ng·h/mL
same,half-life,"[7]; male, Sprague-Dawley, plasma, S-D rat, 0.3 mg/kg Compound 1, oral, read-out: t1/2 (converted)",1.4 h
same,Cmax,[7]; [12],169 ng/mL
same,Tmax,[7]; [12],0.167 h
same,AUC(0-t),"[7]; male, Sprague-Dawley, plasma, S-D rat, 3 mg/kg Compound 1, oral, t = 25 h",211 ng·h/mL
same,half-life,"[7]; male, Sprague-Dawley, plasma, S-D rat, 3 mg/kg Compound 1, oral, read-out: t1/2 (converted)",1.4 h
same,Kp,"[7]; male, Sprague-Dawley, rat, brain, oral, 0.3 or 3 mg/kg orally, read-out: brain exposure as share of plasma exposure",~0.15
same,half-life,"[7]; male, Sprague-Dawley, rat, plasma and brain, po, 0.3 or 3 mg/kg orally, read-out: half-life (plasma and brain concentrations) (converted)",1.4 h
same,Tmax,[8]; [13],0.333 h
same,AUC(0-t),[8]; [13],1530 ng·h/mL
same,half-life,"[8]; cynomolgus monkey, Cyno monkey, 5 mg/kg [14C]-Compound 1, 20-minute intravenous, read-out: t1/2 (converted)",2.1 h
same,Tmax,[8]; [14],2.25 h
same,AUC(0-t),[8]; [14],942 ng·h/mL
same,bioavailability,"[8]; cynomolgus monkey, Cyno monkey, 10 mg/kg [14C]-Compound 1, oral, read-out: F (oral bioavailability)",31.1%
same,half-life,"[8]; cynomolgus monkey, Cyno monkey, 10 mg/kg [14C]-Compound 1, oral, read-out: t1/2 (converted)",1.9 h
same,AUC(0-inf),"[8]; cynomolgus, 5 mg/kg iv infusion",1530 ng·h/mL
same,Cmax,"[8]; cynomolgus, Cyno monkey, 5 mg/kg [14C]-Compound 1, 20-minute intravenous",2030 ng/mL
same,Cmax,"[8]; cynomolgus, Cyno monkey, 10 mg/kg [14C]-Compound 1, oral",254 ng/mL
same,bioavailability,"[8]; cynomolgus, oral, [14C]-Compound 1, 10 mg/kg orally vs 5 mg/kg iv infusion, read-out: Oral bioavailability",~30%
same,AUC(0-inf),"[8]; cynomolgus, po, 10 mg/kg orally",969 ng·h/mL
same,half-life,"[8]; cynomolgus, po, 10 mg/kg orally, read-out: half-life, unchanged parent (converted)",1.9 h
same,C1 (peak concentration following 1st instillation),[9]; [15],26.1 ng/mL
same,C2 (peak concentration following 2nd instillation),[9]; [15],34.8 ng/mL
same,C3 (peak concentration following 3rd instillation),[9]; [15],34.9 ng/mL
same,DN AUC0-t (dose-normalized),[9]; [15],154 (ng*h/mL)/(mg)
same,C1 (peak concentration following 1st instillation),[9]; [16],50.2 ng/mL
same,C2 (peak concentration following 2nd instillation),[9]; [16],119 ng/mL
same,C3 (peak concentration following 3rd instillation),[9]; [16],278 ng/mL
same,DN AUC0-t (dose-normalized),[9]; [16],174 (ng*h/mL)/(mg)
same,C1 (peak concentration following 1st instillation),[9]; [17],326 ng/mL
same,C2 (peak concentration following 2nd instillation),[9]; [17],481 ng/mL
same,C3 (peak concentration following 3rd instillation),[9]; [17],329 ng/mL
same,DN AUC0-t (dose-normalized),[9]; [17],386 (ng*h/mL)/(mg)
same,C1 (peak concentration following 1st instillation),[9]; [18],20.3 ng/mL
same,C2 (peak concentration following 2nd instillation),[9]; [18],16.3 ng/mL
same,C3 (peak concentration following 3rd instillation),[9]; [18],37.5 ng/mL
same,DN AUC0-t (dose-normalized),[9]; [18],164 (ng*h/mL)/(mg)
same,C1 (peak concentration following 1st instillation),[9]; [19],68.0 ng/mL
same,C2 (peak concentration following 2nd instillation),[9]; [19],79.9 ng/mL
same,C3 (peak concentration following 3rd instillation),[9]; [19],76.0 ng/mL
same,DN AUC0-t (dose-normalized),[9]; [19],93.5 (ng*h/mL)/(mg)
same,C1 (peak concentration following 1st instillation),[9]; [20],218 ng/mL
same,C2 (peak concentration following 2nd instillation),[9]; [20],224 ng/mL
same,C3 (peak concentration following 3rd instillation),[9]; [20],210 ng/mL
same,DN AUC0-t (dose-normalized),[9]; [20],137 (ng*h/mL)/(mg)
same,C1 (peak concentration following 1st instillation),[9]; [21],51.9 ng/mL
same,C2 (peak concentration following 2nd instillation),[9]; [21],36.3 ng/mL
same,C3 (peak concentration following 3rd instillation),[9]; [21],54.2 ng/mL
same,C1 (peak concentration following 1st instillation),[9]; [22],86.4 ng/mL
same,C2 (peak concentration following 2nd instillation),[9]; [22],343 ng/mL
same,C3 (peak concentration following 3rd instillation),[9]; [22],134 ng/mL
same,DN AUC0-t (dose-normalized),[9]; [22],230 (ng*h/mL)/(mg)
same,C1 (peak concentration following 1st instillation),[9]; [23],208 ng/mL
same,C2 (peak concentration following 2nd instillation),[9]; [23],332 ng/mL
same,C3 (peak concentration following 3rd instillation),[9]; [23],924 ng/mL
same,DN AUC0-t (dose-normalized),[9]; [23],157 (ng*h/mL)/(mg)
same,C1 (peak concentration following 1st instillation),[9]; [24],12.4 ng/mL
same,C2 (peak concentration following 2nd instillation),[9]; [24],28.0 ng/mL
same,C3 (peak concentration following 3rd instillation),[9]; [24],33.7 ng/mL
same,C1 (peak concentration following 1st instillation),[9]; [25],110 ng/mL
same,C2 (peak concentration following 2nd instillation),[9]; [25],53.8 ng/mL
same,C3 (peak concentration following 3rd instillation),[9]; [25],25.5 ng/mL
same,DN AUC0-t (dose-normalized),[9]; [25],82.7 (ng*h/mL)/(mg)
same,C1 (peak concentration following 1st instillation),[9]; [26],166 ng/mL
same,C2 (peak concentration following 2nd instillation),[9]; [26],209 ng/mL
same,C3 (peak concentration following 3rd instillation),[9]; [26],225 ng/mL
same,DN AUC0-t (dose-normalized),[9]; [26],81.3 (ng*h/mL)/(mg)
same,half-life,"[9]; both, rat, plasma, inhaled or intranasal",1.4 h
same,AUC(0-t),[9]; [27],138 ng·h/mL
same,AUC(0-t),[9]; [28],148 ng·h/mL
same,Cmax,[9]; [27],34.9 ng/mL
same,Cmax,[9]; [28],37.5 ng/mL
same,Tmax,[9]; [27],12.1 h
same,Tmax,[9]; [28],12.1 h
same,AUC(0-t),[9]; [29],626 ng·h/mL
same,AUC(0-t),[9]; [30],336 ng·h/mL
same,Cmax,[9]; [29],278 ng/mL
same,Cmax,[9]; [30],79.9 ng/mL
same,Tmax,[9]; [29],12.1 h
same,Tmax,[9]; [30],6.08 h
same,AUC(0-t),[9]; [31],4170 ng·h/mL
same,AUC(0-t),[9]; [32],1480 ng·h/mL
same,Cmax,[9]; [31],481 ng/mL
same,Cmax,[9]; [32],224 ng/mL
same,Tmax,[9]; [31],6.08 h
same,Tmax,[9]; [32],6.08 h
same,Cmax,[9]; [33],54.2 ng/mL
same,Cmax,[9]; [34],33.7 ng/mL
same,Tmax,[9]; [33],12.1 h
same,Tmax,[9]; [34],12.1 h
same,AUC(0-t),[9]; [35],829 ng·h/mL
same,AUC(0-t),[9]; [36],298 ng·h/mL
same,Cmax,[9]; [35],343 ng/mL
same,Cmax,[9]; [36],110 ng/mL
same,Tmax,[9]; [35],6.08 h
same,Tmax,[9]; [36],0.083 h
same,AUC(0-t),[9]; [37],1700 ng·h/mL
same,AUC(0-t),[9]; [38],878 ng·h/mL
same,Cmax,[9]; [37],924 ng/mL
same,Cmax,[9]; [38],225 ng/mL
same,Tmax,[9]; [37],12.1 h
same,Tmax,[9]; [38],12.1 h
same,time of peak systemic exposure after each instillation,"[9]; rat, intranasal TID, post administration",5 min
same,survival,"[9]; rats, intranasal 0.5%, 2% and 6%, 3 times per day for 7 days",survival of all animals to scheduled euthanasia
same,no-observed-adverse-effect-level (NOAEL),"[9]; rats, intranasal 3 times per day for 7 days",180 μL 6% Compound 1 per animal per day
